Source: PMC3510433, “Adamantyl carboxamides and acetamides as potent human 11β-hydroxysteroid dehydrogenase type 1 inhibitors” (Bioorganic & Medicinal Chemistry, 2012)
“Also recorded” adds a separate entry of the source. Marks after values point to notes of the source that are not given here. Values belong to the compound of their own block, whether it stands above or below them.

Key:
[1] = molecular target: T1, human cytochrome P450 1A2 (Homo sapiens, UniProt P05177); experiment: Inhibition of human cytochrome P450 1A2; assay type: in vitro ADME; conditions: for Percentage inhibition of 1A2: 10 μM; for IC50: mean value of two measurements
T1 sequence (P05177 1-516): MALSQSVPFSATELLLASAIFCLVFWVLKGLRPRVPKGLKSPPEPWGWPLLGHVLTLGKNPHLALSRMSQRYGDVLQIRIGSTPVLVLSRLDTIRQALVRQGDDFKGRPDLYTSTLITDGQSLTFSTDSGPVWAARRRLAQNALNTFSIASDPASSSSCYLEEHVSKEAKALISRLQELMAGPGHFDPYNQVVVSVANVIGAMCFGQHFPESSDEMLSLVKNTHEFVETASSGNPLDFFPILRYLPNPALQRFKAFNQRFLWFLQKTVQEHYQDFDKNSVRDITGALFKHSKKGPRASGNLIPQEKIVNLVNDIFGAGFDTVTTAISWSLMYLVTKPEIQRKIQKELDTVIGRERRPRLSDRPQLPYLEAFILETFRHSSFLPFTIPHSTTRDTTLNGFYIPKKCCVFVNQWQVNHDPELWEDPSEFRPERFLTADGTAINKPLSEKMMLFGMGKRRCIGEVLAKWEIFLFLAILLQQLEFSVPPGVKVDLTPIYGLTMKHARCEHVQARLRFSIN
From the text: (§1) To identify potential problems with these compounds interfering with the metabolism of other drugs, compounds 3, 4, 15 and 41 were studied for their inhibition of the key human cytochrome P450 enzymes: 1A2, 2C9, 2C19, 2D6, 3A4-BFC (7-benzyloxy-4-(trifluoromethyl)coumarin) and 3A4-BQ (7-benzyloxyquinoline) (Table 6).

[2] = molecular target: human cytochrome P450 3A4-BQ (Homo sapiens, UniProt P08684); experiment: Inhibition of human cytochrome P450 3A4-BQ (7-benzyloxyquinoline); assay type: in vitro ADME; conditions: for Percentage inhibition of 3A4-BQ: 10 μM; for IC50: mean value of two measurements
Chain of human cytochrome P450 3A4-BQ (P08684 whole entry): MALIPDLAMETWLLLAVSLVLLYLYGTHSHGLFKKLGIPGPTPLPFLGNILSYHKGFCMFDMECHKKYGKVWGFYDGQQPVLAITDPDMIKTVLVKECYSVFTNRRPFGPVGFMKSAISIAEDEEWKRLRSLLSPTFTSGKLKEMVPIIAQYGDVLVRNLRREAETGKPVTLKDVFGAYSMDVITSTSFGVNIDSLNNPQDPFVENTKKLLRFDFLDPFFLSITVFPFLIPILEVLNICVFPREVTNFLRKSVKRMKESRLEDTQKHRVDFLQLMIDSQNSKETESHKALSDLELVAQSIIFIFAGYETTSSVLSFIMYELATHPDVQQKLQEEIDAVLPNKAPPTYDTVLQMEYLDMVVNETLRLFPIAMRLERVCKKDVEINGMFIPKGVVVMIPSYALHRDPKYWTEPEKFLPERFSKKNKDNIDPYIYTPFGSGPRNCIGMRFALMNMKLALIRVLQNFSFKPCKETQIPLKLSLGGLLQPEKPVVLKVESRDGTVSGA
From the text: as §1

[3] = molecular target: human cytochrome P450 2C9 (Homo sapiens, UniProt P11712); experiment: Inhibition of human cytochrome P450 2C9; assay type: in vitro ADME; conditions: for Percentage inhibition of 2C9: 10 μM; for IC50: mean value of two measurements
Chain of human cytochrome P450 2C9 (P11712 whole entry): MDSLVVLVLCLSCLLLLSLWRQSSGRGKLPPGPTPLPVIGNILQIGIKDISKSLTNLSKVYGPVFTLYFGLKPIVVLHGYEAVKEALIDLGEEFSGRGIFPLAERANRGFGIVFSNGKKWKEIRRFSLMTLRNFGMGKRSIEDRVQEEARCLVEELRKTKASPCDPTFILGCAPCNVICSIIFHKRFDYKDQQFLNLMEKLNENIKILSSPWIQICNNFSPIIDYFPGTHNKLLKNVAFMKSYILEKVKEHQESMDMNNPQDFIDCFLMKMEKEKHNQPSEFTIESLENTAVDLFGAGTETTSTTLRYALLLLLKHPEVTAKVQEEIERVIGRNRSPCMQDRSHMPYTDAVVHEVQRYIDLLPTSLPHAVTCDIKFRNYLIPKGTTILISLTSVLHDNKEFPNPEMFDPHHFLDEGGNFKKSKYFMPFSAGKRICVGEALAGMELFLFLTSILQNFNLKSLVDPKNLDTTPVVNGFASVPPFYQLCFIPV
From the text: as §1

[4] = molecular target: human cytochrome P450 2C19 (Homo sapiens, UniProt P33261); experiment: Inhibition of human cytochrome P450 2C19; assay type: in vitro ADME; conditions: for Percentage inhibition of 2C19: 10 μM; for IC50: mean value of two measurements
Chain of human cytochrome P450 2C19 (P33261 whole entry): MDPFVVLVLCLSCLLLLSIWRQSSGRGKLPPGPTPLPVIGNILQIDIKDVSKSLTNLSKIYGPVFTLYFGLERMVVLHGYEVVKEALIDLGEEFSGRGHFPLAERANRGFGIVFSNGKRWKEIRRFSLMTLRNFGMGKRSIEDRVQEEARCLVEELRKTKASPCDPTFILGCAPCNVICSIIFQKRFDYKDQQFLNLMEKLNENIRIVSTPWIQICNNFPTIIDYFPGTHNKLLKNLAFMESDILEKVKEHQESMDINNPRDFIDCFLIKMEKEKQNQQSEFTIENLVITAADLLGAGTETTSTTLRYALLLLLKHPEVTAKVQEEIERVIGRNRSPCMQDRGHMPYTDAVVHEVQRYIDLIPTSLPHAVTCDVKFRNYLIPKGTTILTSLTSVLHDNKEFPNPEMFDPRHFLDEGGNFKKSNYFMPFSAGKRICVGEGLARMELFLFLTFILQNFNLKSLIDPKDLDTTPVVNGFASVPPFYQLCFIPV
From the text: as §1

[5] = molecular target: T2, human 11β-HSD1 (Homo sapiens, UniProt P28845); experiment: 11β-HSD1 inhibition, human HEK-293 cell based assay (SPA); conditions: for IC50: HEK-293 cells stably transfected with HSD11B1, mean of 3 measurements
T2 construct: expressed in transfected cells; host or cells: HEK-293 (human), stably transfected
T2 sequence (P28845 whole entry): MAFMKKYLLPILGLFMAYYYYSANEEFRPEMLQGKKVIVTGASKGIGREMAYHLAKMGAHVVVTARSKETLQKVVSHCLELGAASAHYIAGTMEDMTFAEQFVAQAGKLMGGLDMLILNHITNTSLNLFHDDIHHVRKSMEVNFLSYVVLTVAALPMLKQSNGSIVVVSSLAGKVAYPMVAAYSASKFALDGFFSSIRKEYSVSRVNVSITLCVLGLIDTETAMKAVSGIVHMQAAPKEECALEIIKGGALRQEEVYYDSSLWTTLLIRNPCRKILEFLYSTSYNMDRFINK
Description: 11β-HSD1 inhibition was measured in intact human HEK-293 cells to reveal the true inhibitory activity. Differences in observed effects for different compounds may reflect combinatorial factors including the ability to penetrate the cell membrane, the stability within the cell and the binding ability to the enzyme.
The cell-based assays were conducted on the human HEK-293 cell line stably transfected with the HSD11B1 gene.[28] 11β-HSD1 activity was determined by measuring the amount of tritiated product formed using a scintillation proximity assay (SPA).
Cells were incubated in 96-well micro-plates in the presence of tritiated cortisone substrate and the assay plates contained internal high and low controls to allow calculation of percentage inhibition. Each well of a 96-well culture plate was seeded with human 11β-HSD1 overexpressed HEK293 cells in 100 μL medium. When the cells were 80% confluent, the medium was removed from each well then 100 μL of fresh, serum-free, medium containing ^3H-cortisone (22 nM) and test compound in 1% DMSO was added. The control wells were also dispensed. […] The plate was incubated at 37 °C for 2 h, after which 50 μL of medium was removed from each well and transferred to a microplate containing 100 μL of a pre-incubated mixture of anti-cortisol antibody and SPA bead. The mixture was incubated with gentle shaking until equilibrium was reached, before transferring to a scintillation counter to establish the enzyme activity in each sample.
The compounds were initially tested at a concentration of 1 μM. Those compounds showing over 70% inhibition of 11β-HSD1 at 1 μM were subjected to an IC50 measurement. A Merck compound 544 was used as the reference compound in the assay (IC50 = 50 ± 20 nM).[19] The IC50 values are reported as the mean value of 3 measurements with variance less than 20%. IC50 values were calculated from the dose-response curve using Microsoft Excel add-in XLfit with a Four Parameter Logistic nonlinear regression model.

[6] = molecular target: human cytochrome P450 3A4-BFC (Homo sapiens, UniProt P08684); experiment: Inhibition of human cytochrome P450 3A4-BFC (7-benzyloxy-4-(trifluoromethyl)coumarin); assay type: in vitro ADME; conditions: mean value of two measurements
Chain of human cytochrome P450 3A4-BFC (P08684 whole entry): as the sequence (P08684 whole entry) above
From the text: as §1

[7] = test system: Caco-2 cell model; experiment: Membrane permeability, Caco-2 cell model; assay type: in vitro ADME; conditions: Caco-2, 20 μM
From the text: (§2) Compound 3 was studied for its membrane permeability using the Caco-2 cell model.

[8] = Membrane permeability, Caco-2 cell model; assay type: in vitro ADME; conditions: human, Caco-2; apical to basolateral, 20 μM
From the text: as §2

[9] = molecular target: human cytochrome P450 2D6 (Homo sapiens, UniProt P10635); experiment: Inhibition of human cytochrome P450 2D6; assay type: in vitro ADME; conditions: for Percentage inhibition of 2D6: 10 μM; for IC50: mean value of two measurements
Chain of human cytochrome P450 2D6 (P10635 whole entry): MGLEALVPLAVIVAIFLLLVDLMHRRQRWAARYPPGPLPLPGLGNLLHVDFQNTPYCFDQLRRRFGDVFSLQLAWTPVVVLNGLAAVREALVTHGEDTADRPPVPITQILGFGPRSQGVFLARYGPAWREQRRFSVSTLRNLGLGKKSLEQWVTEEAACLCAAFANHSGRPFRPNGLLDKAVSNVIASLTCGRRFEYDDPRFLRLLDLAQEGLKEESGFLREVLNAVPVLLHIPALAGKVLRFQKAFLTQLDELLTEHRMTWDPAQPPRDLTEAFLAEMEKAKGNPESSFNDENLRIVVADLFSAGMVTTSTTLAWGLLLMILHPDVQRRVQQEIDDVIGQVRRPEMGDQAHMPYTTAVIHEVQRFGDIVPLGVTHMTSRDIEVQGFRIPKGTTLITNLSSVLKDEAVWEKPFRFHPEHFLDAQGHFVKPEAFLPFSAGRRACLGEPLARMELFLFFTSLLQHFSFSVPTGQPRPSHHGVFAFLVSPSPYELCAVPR
From the text: as §1

[10] = Stability in incubation with human liver microsomes; assay type: in vitro ADME; conditions: 37 °C, NADPH; for half-life: 40 min
Description: Potent inhibitors (3 and 15) were incubated at 37 °C for 40 min with human liver microsomes in the presence of the cofactor NADPH to evaluate their stability under such conditions. The remaining parent compound was measured using a HPLC method.

[11] = test system: key human cytochrome P450 enzymes; experiment: Inhibition of the key human cytochrome P450 enzymes (panel, summary statements); assay type: in vitro ADME
From the text: as §1

[12] = test system: CYP 2CA (so in the source), CYP3A4; experiment: Inhibition of the key human cytochrome P450 enzymes (panel, summary statements); assay type: in vitro ADME; conditions: human; 2CA, 3A4-BFC and 3A4-BQ
From the text: as §1

- Percentage inhibition of 1A2 [1]: 6% ^a
- Percentage inhibition of 3A4-BQ [2]: 34% ^a
- Percentage inhibition of 2C9 [3]: 62% ^a
- Percentage inhibition of 2C19 [4]: 13% ^a
- IC50 [5]: 0.229 µM
- IC50 [6]: 10 µM
- permeability (in words) [7]: high permeability
- Papp A→B at 20 μM [8]: 33 ×10⁻⁶ cm/s
- Percentage inhibition of 2D6 [9]: 2% ^a
- half-life [10]: 1 to 1.17 h
- stability with human liver microsomes (in words) [10]: moderately stable
- activity against 2C9 and 3A4-BFC (in words) ([11]; 2C9 and 3A4-BFC): weak activity
Structure (SMILES): CN(Cc1cccs1)C(=O)C12CC3CC(CC(C3)C1)C2 [Compound 3]

- Percentage inhibition of 1A2 [1]: 1% ^a
- Percentage inhibition of 3A4-BQ [2]: 66% ^a
- Percentage inhibition of 2C9 [3]: 49% ^a
- Percentage inhibition of 2C19 [4]: 80% ^a
- IC50 [5]: 0.308 µM
- IC50 [6]: 0.15 µM
- Percentage inhibition of 2D6 [9]: 9% ^a
Structure (SMILES): CN(Cc1cccs1)C(=O)CC12CC3CC(CC(C3)C1)C2 [Compound 4, 2-(Adamantan-1-yl)-N-methyl-N-(thiophen-2-ylmethyl)acetamide]

- IC50 [1]: > 100 µM
- IC50 [2]: 18 µM
- IC50 [3]: > 100 µM
- IC50 [4]: > 100 µM
- IC50 [5]: 0.114 µM
- fold more potent than compound 16 ([5]; N-methyl amide vs NH analogue 16): over 15 times
- IC50 [6]: 19 µM
- IC50 [9]: > 100 µM
- half-life [10]: 1 to 1.17 h
Structure (SMILES): CN(Cc1cccn1C)C(=O)C12CC3CC(CC(C3)C1)C2 [Compound 15, N-Methyl-N-((1-methyl-1H-pyrrol-2-yl)-methyl)adamantane-1-carboxamide]
- stability with human liver microsomes (in words) [10]: moderate stability; also recorded: moderately stable; also recorded: relatively stable
- inhibition of the key human cytochrome P450 enzymes (in words) ([11]; 1A2, 2C9, 2C19, 2D6, 3A4-BFC, 3A4-BQ): weak inhibitory activity; also recorded: very weak inhibition; also recorded: very weak inhibitory activity

- melting point: 92 to 95 °C
- IC50 [5]: 2.88 µM
Structure (SMILES): Cn1cccc1CNC(=O)CC12CC3CC(CC(C3)C1)C2 [Compound 36, 2-(Adamantan-1-yl)-N-[(1-methyl-1H-pyrrol-2-yl)methyl]acetamide]

- melting point: 67 to 68.5 °C
- inhibition at 1 µM ([5]; HEK293, 1 μM, HEK-293 cells transfected with HSD11B1, read-out: Percentage of inhibition measured at 1 μM): 67%
Structure (SMILES): CN(Cc1cccnc1)C(=O)CC12CC3CC(CC(C3)C1)C2 [Compound 37, 2-(Adamantan-1-yl)-N-methyl-N-(pyridin-3-ylmethyl)acetamide]

- melting point: 87 to 88.5 °C
- IC50 [5]: 1.08 µM
Structure (SMILES): CN(Cc1cccs1)C(=O)C12CC3CC(CC1C3)C2 [Compound 39, N-Methyl-N-(thiophen-2-ylmethyl)-tRicyclo[3.3.1.0^(3,7)]nonane-3-carboxamide]

- IC50 [1]: > 100 µM
- IC50 [2]: 1.6 µM
- IC50 [3]: 4.5 µM
- IC50 [4]: > 100 µM
- IC50 [5]: 0.28 µM
- IC50 [6]: 7.3 µM
- IC50 [9]: 72 µM
- IC50 [12]: 1.6 to 7.3 µM
Structure (SMILES): Cc1ccc(C2(C(=O)N(C)Cc3cccs3)CC2)cc1 [Compound 41, N-Methyl-N-(thiophen-2-ylmethyl)-1-p-tolylcyclopropanecarboxamide]

- melting point: 58 to 60 °C
- IC50 [5]: 2.2 µM
Structure (SMILES): CN(Cc1cccs1)C(=O)C1(c2ccc(Cl)cc2)CCCC1 [Compound 44, 1-(4-Chlorophenyl)-N-methyl-N-(thio-phen-2-ylmethyl)cyclopentanecarbox-amide]
